Patent US11013687B1, “Preventive and therapeutic treatment for COVID 19 and any other disease caused by SARS CoV 2” (priority 2020, dated 2021)

Assays:
SARS-CoV-2 = type: cell-based
[1] = used in much larger amounts as food additive and sweetener than for nasal delivery; cited from earlier work
[2] = cited from earlier work

Compound | capable of inhibiting SARS CoV 2 in vitro (in words) (SARS-CoV-2; xylitol alone) | safety for humans [1] | Log reduction of TCID50/mL after 48 hs. (mean of three replicates) (SARS-CoV-2; 6 μg/mL iota carrageenan, Vero E6, treated pre- and post-infection, 48 h, vs virus only, LOD in next column = titre at limit of detection) | concentration capable of inhibiting SARS CoV 2 in vitro (SARS-CoV-2; concentration of iota Carrageenan, alone or in combination with xylitol) | time iota Carrageenan stays in the nasal mucosa ([2]; clinical trials with a formulation containing xylometazoline and iota Carrageenan) | residence time ([2]; nasal, estimation basis for dosing each 4 hours)
OC[C@@H](O)[C@H](O)[C@@H](O)CO [xylitol, Xylitol] | capable of inhibiting SARS CoV 2 in vitro | safe for humans |  |  |  | 
iota Carrageenan |  | safe for humans | significantly reducing viral titers | not less than 6 μg/mL | about 4 hrs | approximately 4 hour
